Assay results: PMC10049354, “Anti-Inflammatory Effects and Photo- and Neuro-Protective Properties of BIO203, a New Amide Conjugate of Norbixin, in Development for the Treatment of Age-Related Macular Degeneration (AMD)” (International Journal of Molecular Sciences, 2023)

What was measured:
[1] = system: albino rats exposed to blue-light-induced photoreceptor degeneration; assay: Blue-light damage (BLD) study in albino rats: ERG; type: in vivo, rat; conditions: 50 mg/kg, four IP administrations; positive controls
Procedure: The ERG in rats was performed using the electrophysiological system RETI-animal® from Roland Consult. ERG was recorded on both eyes from overnight dark-adapted animals. Rats were anesthetized by an intramuscular injection of a mix of Rompun® (xylazine)/Imalgene® (ketamine) before ERG measurement. Ten to fifteen minutes before measurement, one drop of Mydriaticum® (0.5% tropicamide) was instilled for pupillary dilatation. The A-wave and B-wave implicit times (ms) and amplitudes (µV) were measured for each ERG. The B-wave amplitude (value and %) was given as informative data. ERG parameters: Ganzfeld Q450C, Color: white maximum, Maximum intensity: 3 cd/m^2 (0 dB); Duration 0.24 ms; number of flashes: 1, Filter: 50 Hz, Impedance threshold: 50 kΩ. For scotopic ERGs, the A-wave amplitudes were measured from the baseline to the peak of the negative potential, whereas B-wave amplitudes were measured from the trough of the A-wave to the peak of the positive potential. The recordings obtained from these analyses were tabulated and normalized (%) for each eye. Group means, standard deviation, and median values were calculated, considering each eye from one animal as a separate value. ERG recordings in mice were performed as previously described.
(§1) Sixty-four animals were selected based on good health and on scotopic electroretinogram performed before induction when the A-wave amplitude of both eyes was in the range of the global mean (all animals) of A-wave amplitude ± 1.96 SD. Animals were then randomized into the study groups using a macro function in Excel® software based on the A-wave amplitude of both eyes (mean value). On Day 0, BIO203, negative controls, and comparator (N-tert-Butyl-a-phenylnitrone (PBN)) were intraperitoneally injected using a 25 G needle in rats that have been dark-adapted for 36 h. Individually housed rats were then exposed for 6 h (±5 min) to a continuous blue, fluorescent light (400–540 nm) in clear plastic cages. After exposure and administration, the rats were placed in a dark room for 24 h (±1 h) and then were returned to rearing cyclic light conditions.

[2] = system: albino rats exposed to blue-light-induced photoreceptor degeneration; assay: Blue-light damage (BLD) study in albino rats: retinal histology (photoreceptor layers); type: in vivo, rat; conditions: 50 mg/kg, four IP administrations; 6 h blue-light exposure; p < 0.0001
Procedure: At the end of the measurement period on Day 7, rats were euthanized by an intraperitoneal injection of pentobarbital. Immediately after euthanasia, both eyeballs were sampled, fixed in Davidson’s solution, and processed for histology. Sections (5 to 7 µm thick) were performed along the vertical meridian and stained with Haematoxylin/Eosin stain. The vertical meridian included the optic nerve. […] The thickness of the outer nuclear layer was measured on each point. […] Histology and photoreceptor counting in mice were performed as previously described.
as §1

[3] = system: primary porcine RPE cells; assay: RPE phototoxicity: photoprotection of RPE cells exposed to A2E and blue light; type: cell-based, pig; conditions: all concentrations from 10 to 20 μM; A2E 30 μM + blue light
Procedure: RPE cells were obtained from pig eyes, as previously described. RPE cells were seeded on a 96-well plate at a density of 1.5 × 10^5 cells/cm^2 in DMEM 2% FCS. BIO201, BIO203, or its pure enantiomers were added in increasing concentrations to the culture medium 48 h before illumination. A2E was added to the medium at a final concentration of 30 μM, and 19 h later, blue-light illumination was performed for 50 min using a 96 blue-led device (Durand, St Clair de la Tour, France) emitting at 470 nm (1440 mcd, 8.6 mA). Just before illumination, the culture medium was replaced by a modified DMEM without any photosensitizer and with 2% FCS. Twenty-four hours after blue-light irradiation, all cell nuclei were stained with Hoechst 33342, and nuclei of dead cells with ethidium homodimer 2, fixed with paraformaldehyde (4% in PBS, 10 min) and 9 pictures per well were captured using a fluorescence microscope (Nikon TiE) equipped with a CoolSNAP HQ2 camera and driven by Metamorph Premier On-Line program. Quantification of live cells was performed using Metamorph Premier Off-Line and a homemade program by subtraction of dead cells from all cells. For cytokines mRNA analysis, RPE cells were seeded in 24-well plates and left untreated or treated with A2E or BIO203 alone or A2E plus BIO203. After 48 h, cells were lysed using the lysis buffer from the NucleoSpin® RNA kit, and the samples were stored at −80 °C.

SMILES | effect on visual function (ERG A-wave and B-wave) [1] | preservation of retinal structure (photoreceptor layers) [2] | protective activity compared with BIO203 (racemate) [3]
CC(C)(C)[N+]([O-])=Cc1ccccc1 [PBN, N-tert-Butyl-a-phenylnitrone, reference compound] | protected the visual functions | partially preserved the retinal structure | –
CO[C@H]1CCCN(C(=O)/C=C/C(C)=C/C=C/C(C)=C/C=C/C=C(C)/C=C/C=C(C)\C=C\C(=O)O)C1 [BIO203-S] | – | – | same protective activity as BIO203
CO[C@@H]1CCCN(C(=O)/C=C/C(C)=C/C=C/C(C)=C/C=C/C=C(C)/C=C/C=C(C)\C=C\C(=O)O)C1 [BIO203-R] | – | – | same protective activity as BIO203
